Legend:
Type in all cases: cell-based
SW620 cells = test: FACS cell cycle distribution by DNA content (propidium iodide), SW620 cells in FBS- media; conditions: 24 hours in FBS- media, AZ191 2.5, 5, 10 μM, Compound I-7 1.25, 2.5, 5 μM
Protocol: Cell cultures were seeded into 6-well plates at 3×10^5-6×10^5 cells/well; the plated number of cells depended on cell size and rate of proliferation, aiming for approximately 50% confluency. After seeding, the cells were allowed to attach for 24 hours while incubated at 37° C. in a humidified 5% CO2 atmosphere, and then treated with compounds for desired amount of time (usually 24 hours) incubating under same conditions. Then the cells were harvested by trypsinization, pooled with the floating cells, washed in PBS, and fixed in 70% ice-cold ethanol overnight. […] […] The complete protocol and composition of buffers are described in the literature (Darzynkiewicz Z, Juan G, and Srour E F (2004) Differential Staining of DNA and RNA (2004). Current Protocols in Cytometry, Chapter 7:Unit 7.3).
The SW620 cells were cultured and treated as described in Example 1. For propidium iodide (PI) staining, manufacturer's protocol supplied with the Guava Cell Cycle Reagent for Flow Cytometry (EMD Millipore) was followed. The measurements were performed with Guava PCA-96 flow cytometer (EMD Millipore) using the green laser for excitation at 535 nm and monitoring emission at 617 nm.
The SW620 cells were cultured, treated, and analyzed as described in Examples 1. […]

DMS273 cells = test: CellTiter-Glo cell viability assay, DMS273 cells; conditions: Homo sapiens, DMS-273, DMS273 cells
Excerpt: (§1) The following cell lines were obtained from ATCC and cultured according to the ATCC recommendations: DMS273—small cell lung cancer cell line; H1975—non-small cell lung cancer cell line harboring L858R and T790M mutations in EGFR TK; A549—a non-small cell lung cancer cell line with wild type EGFR; LNCap—prostate cancer cell line; SW620—colon cancer cell line; MiaPaCa2—pancreatic cancer cell line; PANC1—pancreatic cancer cell line; OVCAR3—ovarian cancer cell line; SK-OV-3—ovarian cancer cell line.
(§2) For viability analysis, cells were seeded into 96-well plates at 2×10^3-6×10^3 cells/well; the plated number of cells depended on cell size and rate of proliferation aiming for approximately 50% confluency. After seeding, the cells were allowed to attach for 24 hours incubated at 37° C. in a humidified 5% CO2 atmosphere.
(§3) The treatments were performed using at least 6 different concentrations of a compound in 1:3 serial dilutions in DMSO such that the DMSO concentration in the cell medium was <1%. The cell cultures were incubated for an additional 96 hours in 5% CO2 incubator at 37° C. Treatments were performed in triplicate. Results were analyzed by CellTiter-Glo™ Luminescent Cell Viability Assay (Promega, cat. #G7571) according to the manufacturer's instructions using Spectra MAX Gemini Spectrophotometer (Molecular Devices).

A549 cells = test: CellTiter-Glo cell viability assay, A549 cells; conditions: Homo sapiens
Excerpt: as §1, §2, §3

H1975 cells = test: CellTiter-Glo cell viability assay, H1975 cells; conditions: Homo sapiens, NCI-H1975, H1975 cells
Excerpt: as §1, §2, §3

PANC1 cells = test: CellTiter-Glo cell viability assay, PANC1 cells; conditions: Homo sapiens, PANC-1, PANC1 cells
Excerpt: as §1, §2, §3

SMILES	fraction of cells in quiescent state (G0), based on fraction of cells in G0+G1 phase (SW620 cells)	EC50 (DMS273 cells; Compound I-7 not present)	EC50 (DMS273 cells; Compound I-7 present at 2 μM)	EC50 (DMS273 cells; Compound I-7 present at 4 μM)	EC50 (A549 cells; Compound I-7 not present)	EC50 (A549 cells; Compound I-7 present at 3 μM)	EC50 (A549 cells; Compound I-7 present at 6 μM)	EC50 (H1975 cells; Compound I-7 not present)	EC50 (H1975 cells; Compound I-7 present at 2 μM)	EC50 (H1975 cells; Compound I-7 present at 4 μM)	EC50 (PANC1 cells; Compound I-7 not present)	EC50 (PANC1 cells; Compound I-7 present at 2 μM)	EC50 (PANC1 cells; Compound I-7 present at 4 μM)
COc1cc(N2CCN(C)CC2)ccc1Nc1nccc(-c2cn(C)c3cnccc23)n1 [AZ191]	no decrease in fraction of cells in quiescent state (G0)												
CC[C@@H]1C(=O)N(C)c2cnc(Nc3ccc(C(=O)NC4CCN(C)CC4)cc3OC)nc2N1C1CCCC1 [BI2536]		6.2 nM	4.1 nM	1.7 nM	6.2 nM	4.1 nM	1.7 nM	46.3 nM	17.3 nM	< 0.04 nM	7.3 nM	4.4 nM	2.5 nM
C[C@@H](Oc1cc(-n2cnc3ccc(CN4CCN(C)CC4)cc32)sc1C(N)=O)c1ccccc1C(F)(F)F [GSK461364]		430 nM	240 nM	120 nM	1200 nM	500 nM	200 nM	1900 nM	970 nM	580 nM	500 nM	300 nM	200 nM

From US10314843B2, “Combinations for the treatment of neoplasms using quiescent cell targeting and inhibitors of mitosis” (Felicitex Therapeutics, Inc., priority 2016, dated 2019)
